For this assay, the target named is AMPK. Briefly: AMPK activation, enzyme-linked immunosorbent assay. As to conditions: Table 2, ELISA. The assay is classed as biochemical. The method, then: Compounds 1-54 were assayed for their ability to activate AMPK using an enzyme-linked immunosorbent assay.
Compounds 55-62 of Table 1 were assayed for their ability to activate AMPK using an enzyme-linked immunosorbent assay.
Compounds 63-66 of Table 1 were assayed for their ability to activate AMPK using an enzyme-linked immunosorbent assay.
Compounds 67-71 of Table 1 were assayed for their ability to activate AMPK using an enzyme-linked immunosorbent assay.
Compound 72 of Table 1 was assayed for its ability to activate AMPK using an enzyme-linked immunosorbent assay.
In general terms: In an ELISA, binding on a coated surface is turned into a signal by an enzyme label.

Molecules are shown by their SMILES.

The record followed here is patent publication US8895578B2, “Carboxamide, sulfonamide and amine compounds and methods for using the same” (Rigel Pharmaceuticals, Inc., priority 2007, dated 2014).

A word on the EC50: it is the midpoint of the concentration-response curve.

`N#Cc1ccc(CN2CCC(NC(=O)c3ccc4[nH]c5c(c4c3)CN(C(=O)OCc3ccccc3)CC5)CC2)cc1` [Compound 1, benzyl 8-(1-(4-cyanobenzyl)piperidin-4-ylcarbamoyl)-3,4-dihydro-1H-pyrido[4,3-b]indole-2(5H)-carboxylate] registered a half-maximal effective concentration (EC50) of 1000 to 5000 nM.

In turn, `O=C(NC1CCN(Cc2ccccc2)CC1)c1ccc2[nH]c3c(c2c1)CN(C(=O)OCc1ccccc1)CC3` [Compound 2, benzyl 8-(1-(4-benzyl)piperidin-4-ylcarbamoyl)-3,4-dihydro-1H-pyrido[4,3-b]indole-2(5H)-carboxylate] gave a half-maximal effective concentration (EC50) of 10000 to 50000 nM.

The compound `CC(C)(C)OC(=O)N1CCC(NC(=O)c2ccc3[nH]c4c(c3c2)CN(C(=O)OCc2ccccc2)CC4)CC1` [Compound 3, benzyl 8-(1-(tert-butoxy-carbonyl)piperidin-4-ylcarbamoyl)-3,4-dihydro-1H-pyrido[4,3-b]indole-2(5H)-carboxylate] displayed a 50% effective concentration (EC50) of 10000 to 50000 nM.

For the compound `N#Cc1ccc(CN2CCC(NC(=O)c3ccc4[nH]c5c(c4c3)CN(Cc3ccccc3)CC5)CC2)cc1` [Compound 4, 2-benzyl-N-(1-(4-cyano-benzyl)piperidin-4-yl)-2,3,4,5-tetrahydro-1H-pyrido[4,3-b]indole-8-carboxamide], the EC50 was in the range of 1000 to 5000 nM.

The compound `O=C(NC1CCN(Cc2ccc(C(F)(F)F)cc2)CC1)c1ccc2[nH]c3c(c2c1)CN(Cc1ccccc1)CC3` [Compound 5, 2-benzyl-N-(1-(4-trifluoromethylbenzyl)piperidin-4-yl)-2,3,4,5-tetrahydro-1H-pyrido [4,3-b]indole-8-carboxamide] gave a concentration for a half-maximal effect (EC50) of 1000 to 5000 nM.

On to `CC(C)(C)OC(=O)N1CCC(NC(=O)c2ccc3[nH]c4c(c3c2)CN(Cc2ccc(C(F)(F)F)cc2)CC4)CC1` [Compound 6, tert-butyl 4-(2-(4-(trifluoromethyl)benzyl)-2,3,4,5-tetrahydro-1H-pyrido[4,3-b]indole-8-carboxamido)piperidine-1-carboxylate], for which the concentration giving a half-maximal response (EC50) was in the range of 500 to 1000 nM.

`O=C(NC1CCN(Cc2ccncc2)CC1)c1ccc2[nH]c3c(c2c1)CN(Cc1ccccc1)CC3` [Compound 7, 2-benzyl-N-(1-(pyridin-4-ylmethyl)piperidin-4-yl)-2,3,4,5-tetrahydro-1H-pyrido[4,3-b]indole-8-carboxamide] yielded a 50% effective concentration (EC50) of 5000 to 10000 nM.

As to `O=C(NC1CCN(Cc2cccnc2)CC1)c1ccc2[nH]c3c(c2c1)CN(Cc1ccc(F)cc1)CC3` [Compound 8, 2-(4-fluorobenzyl)-N-(1-(pyridin-3-ylmethyl)piperidin-4-yl)-2,3,4,5-tetrahydro-1H-pyrido [4,3-b]indole-8-carboxamide], the EC50 is 5000 to 10000 nM.

For `N#Cc1ccc(CN2CCC(NC(=O)c3ccc4[nH]c5c(c4c3)CN(Cc3ccc(F)cc3)CC5)CC2)cc1` [Compound 9, N-(1-(4-cyanobenzyl)piperidin-4-yl)-2-(4-fluorobenzyl)-2,3,4,5-tetrahydro-1H-pyrido [4,3-b]indole-8-carboxamide], the EC50 was < 500 nM.

For `O=C(NC1CCN(Cc2ccc(C(F)(F)F)cc2)CC1)c1ccc2[nH]c3c(c2c1)CN(Cc1ccc(F)cc1)CC3` [Compound 10, N-(1-(4-trifluoromethyl-benzyl)piperidin-4-yl)-2-(4-fluorobenzyl)-2,3,4,5-tetrahydro-1H-pyrido[4,3-b]indole-8-carboxamide], the EC50 was in the range of 500 to 1000 nM.

As for `O=C(NC1CCN(Cc2cccnc2)CC1)c1ccc2[nH]c3c(c2c1)CN(Cc1ccc(C(F)(F)F)cc1)CC3` [Compound 11, N-(1-(pyridin-3-ylmethyl)piperidin-4-yl)-2-(4-(trifluoromethyl)benzyl)-2,3,4,5-tetrahydro-1H-pyrido[4,3-b]indole-8-carboxamide], the 50% effective concentration (EC50) is < 500 nM.

For `N#Cc1ccc(CN2CCC(NC(=O)c3ccc4[nH]c5c(c4c3)CN(Cc3ccc(C(F)(F)F)cc3)CC5)CC2)cc1` [Compound 12, N-(1-(4-cyanobenzyl)piperidin-4-yl)-2-(4-(trifluoromethyl)benzyl)-2,3,4,5-tetrahydro-1H-pyrido[4,3-b]indole-8-carboxamide], the EC50 is < 500 nM.

Regarding `O=C(NC1CCN(Cc2ccc(C(F)(F)F)cc2)CC1)c1ccc2[nH]c3c(c2c1)CN(Cc1ccc(C(F)(F)F)cc1)CC3` [Compound 13, N-(1-(4-trifluoromethyl-benzyl)piperidin-4-yl)-2-(4-(trifluoromethyl)benzyl)-2,3,4,5-tetrahydro-1H-pyrido[4,3-b]indole-8-carboxamide], the EC50 was < 500 nM.

For the compound `O=C(NC1CCN(CCc2ccccc2)CC1)c1ccc2[nH]c3c(c2c1)CN(Cc1ccc(C(F)(F)F)cc1)CC3` [Compound 14, N-(1-phenethyl-piperidin-4-yl)-2-(4-(trifluoromethyl)benzyl)-2,3,4,5-tetrahydro-1H-pyrido[4,3-b]indole-8-carboxamide], the EC50 was < 500 nM.

In the case of `O=C(NC1CCN(c2ccc(F)cc2)CC1)c1ccc2[nH]c3c(c2c1)CN(Cc1ccc(C(F)(F)F)cc1)CC3` [Compound 15, N-(1-(4-fluorophenyl)piperidin-4-yl)-2-(4-(trifluoromethyl)benzyl)-2,3,4,5-tetrahydro-1H-pyrido[4,3-b]indole-8-carboxamide], the EC50 is < 500 nM.

On to `Cn1c2c(c3cc(C(=O)NC4CCN(Cc5ccc(C#N)cc5)CC4)ccc31)CN(Cc1ccc(C(F)(F)F)cc1)CC2` [Compound 16, N-(1-(4-cyanobenzyl)piperidin-4-yl)-5-methyl-2-(4-(trifluoromethyl)benzyl)-2,3,4,5-tetrahydro-1H-pyrido[4,3-b]indole-8-carboxamide], for which the concentration for a half-maximal effect (EC50) is < 500 nM.

In turn, `Cn1c2c(c3cc(C(=O)NC4CCN(Cc5ccc(C(F)(F)F)cc5)CC4)ccc31)CN(Cc1ccc(C(F)(F)F)cc1)CC2` [Compound 17, N-(1-(4-trifluoromethyl-benzyl)piperidin-4-yl)-5-methyl-2-(4-(trifluoro-methyl)benzyl)-2,3,4,5-tetrahydro-1H-pyrido [4,3-b]indole-8-carboxamide] showed an EC50 of 500 to 1000 nM.

`Cn1c2c(c3cc(C(=O)NC4CCN(Cc5cccnc5)CC4)ccc31)CN(Cc1ccc(C(F)(F)F)cc1)CC2` [Compound 18, 5-methyl-N-(1-(pyridin-3-ylmethyl)piperidin-4-yl)-2-(4-(trifluoromethyl)benzyl)-2,3,4,5-tetrahydro-1H-pyrido[4,3-b]indole-8-carboxamide] yielded an EC50 of 1000 to 5000 nM.

`O=C(NC1CCN(Cc2ccccc2)CC1)c1ccc2[nH]c3c(c2c1)CN(S(=O)(=O)c1ccc(C(F)(F)F)cc1)CC3` [Compound 19, N-(1-benzylpiperidin-4-yl)-2-(4-(trifluoromethyl)phenylsulfonyl)-2,3,4,5-tetrahydro-1H-pyrido [4,3-b]indole-8-carboxamide]: the 50% effective concentration (EC50) was > 100000 nM.

`CC(=O)n1c2c(c3cc(C(=O)NC4CCN(Cc5cccnc5)CC4)ccc31)CN(Cc1ccc(C(F)(F)F)cc1)CC2` [Compound 20, 5-acetyl-N-(1-(pyridin-3-ylmethyl)piperidin-4-yl)-2-(4-(trifluoromethyl)benzyl)-2,3,4,5-tetrahydro-1H-pyrido[4,3-b]indole-8-carboxamide]: the EC50 was 1000 to 5000 nM.

The compound `N#Cc1ccc(S(=O)(=O)N2CCC(NC(=O)c3ccc4[nH]c5c(c4c3)CN(Cc3ccc(C(F)(F)F)cc3)CC5)CC2)cc1` [Compound 21, N-(1-(4-cyanophenyl-sulfonyl)piperidin-4-yl)-2-(4-(trifluoromethyl)benzyl)-2,3,4,5-tetrahydro-1H-pyrido[4,3-b]indole-8-carboxamide] displayed an EC50 of 500 to 1000 nM.

Take `O=C(NC1CCN(S(=O)(=O)c2cccnc2)CC1)c1ccc2[nH]c3c(c2c1)CN(Cc1ccc(C(F)(F)F)cc1)CC3` [Compound 22]: the concentration for a half-maximal effect (EC50) fell in the range of 500 to 1000 nM.

The compound `O=C(NC1CCN(S(=O)(=O)c2ccc(C(F)(F)F)cc2)CC1)c1ccc2[nH]c3c(c2c1)CN(Cc1ccc(C(F)(F)F)cc1)CC3` [Compound 23, 2-(4-(trifluoromethyl)benzyl)-N-(1-(4-(trifluoro-methyl)phenylsulfonyl)piperidin-4-yl)-2,3,4,5-tetrahydro-1H-pyrido[4,3-b]indole-8-carboxamide] showed a concentration giving a half-maximal response (EC50) of 1000 to 5000 nM.

As for `N#Cc1ccc(CN2CCC(NC(=O)c3ccc4[nH]c5c(c4c3)CN(S(=O)(=O)c3ccc(C(F)(F)F)cc3)CC5)CC2)cc1` [Compound 24, N-(1-(4-cyanobenzyl)piperidin-4-yl)-2-(4-(trifluoromethyl)phenyl-sulfonyl)-2,3,4,5-tetrahydro-1H-pyrido[4,3-b]indole-8-carboxamide], the EC50 was 1000 to 5000 nM.

`N#Cc1ccc(CN2CCC(NC(=O)c3ccc4[nH]c5c(c4c3)CN(S(=O)(=O)c3ccc(C#N)cc3)CC5)CC2)cc1` [Compound 25, N-(1-(4-cyanobenzyl)piperidin-4-yl)-2-(4-cyanophenylsulfonyl)-2,3,4,5-tetrahydro-1H-pyrido[4,3-b]indole-8-carboxamide] yielded an EC50 of 10000 to 50000 nM.

For the compound `N#Cc1ccc(CN2CCC(NC(=O)c3ccc4[nH]c5c(c4c3)CN(S(=O)(=O)c3cccnc3)CC5)CC2)cc1` [Compound 26, N-(1-(4-cyanobenzyl)piperidin-4-yl)-2-(pyridin-3-ylsulfonyl)-2,3,4,5-tetrahydro-1H-pyrido [4,3-b]indole-8-carboxamide], the EC50 lay in the range of 10000 to 50000 nM.

Consider `N#Cc1ccc(NC(=O)N2CCC(NC(=O)c3ccc4[nH]c5c(c4c3)CN(Cc3ccc(C(F)(F)F)cc3)CC5)CC2)cc1` [Compound 27, N-(1-(4-cyanophenyl-carbamoyl)piperidin-4-yl)-2-(4-(trifluoro-methyl)benzyl)-2,3,4,5-tetrahydro-1H-pyrido [4,3-b]indole-8-carboxamide], for which the EC50 was 1000 to 5000 nM.

In the case of `O=C(NC1CCN(S(=O)(=O)c2ccc(F)cc2)CC1)c1ccc2[nH]c3c(c2c1)CN(Cc1ccc(C(F)(F)F)cc1)CC3` [Compound 28, N-(1-(4-fluorophenyl-sulfonyl)piperidin-4-yl)-2-(4-(trifluoromethyl)benzyl)-2,3,4,5-tetrahydro-1H-pyrido[4,3-b]indole-8-carboxamide], the EC50 was in the range of 1000 to 5000 nM.
